Molecules are shown by their SMILES. Like-named read-outs stand apart in the source and are kept apart here. Marks after values point to notes of the source that are not given here.

Results on 1 compound are retold here after patent publication US7148210B2, “Method of treating bone metastasis” (Trustees of Dartmouth College, priority 2002, dated 2006).

The subject of data set [1] is HRPA cells. The note with it: preclinical observations, Janssens and Boeynaems (2001); Fang et al. (1992); cited from earlier work.
Data set [2] is described as follows: Monitoring of patients for adverse effects / tolerability. The format is in vivo, human. The text has this: (§1) This regime was maintained until the maximally tolerated dose (MTD) was reached.
Data set [3] has as its system bone metastases. Put plainly: Clinical outcome in patients (bone pain, energy, bone scan). The format is in vivo, human. The note with it: Patient 1. The text has this:
(§2) Patients were consenting adult patients with histologically/cytologically confirmed advanced hormone-refractory prostate cancer not curable by conventional therapies that fulfilled the standard phase 1 liver, renal and Karnofsky performance eligibility requirements. The patients also had to meet one of the two following requirements. A positive bone scan and/or imaging study for bone metastasis with accompanying bone pain had to be present with rising PSA values, identified in three consecutive PSA observations, following definitive surgery and/or radiation therapy and anti-androgen hormonal therapy. PSA levels (>10 ng/ml) and a positive bone scan and bone pain at time of initial diagnosis.

Data set [4] can be described thus: ATP i.v. infusion dose escalation to maximally tolerated dose (present disclosure). The format is in vivo, human. The note with it: duration 8 hours.
From the text: as §1, §2
Average patient age was between 50 and 85 years of age. Patients were excluded if they met the standard phase 1 respiratory and cardiac exclusion criteria.
ATP infusion therapy was as described above.

The subject of data set [5] is hormone-refractory prostate adenocarcinoma (HRPA). Put plainly: Blood PSA response in hormone-refractory prostate cancer patients with bone metastasis. The format is in vivo, human. The protocol: Treatment of hormone-refractory prostate adenocarcinoma (HRPA) patients presents a complex combination of tumor and pain management. […] HRPA outcomes and PSA measurements were determined pre- and post-treatment within 25–45 days after Sm-153 administration.
[formula] PSA decreases of greater than 50% from baseline are associated with improved survivals in prostate cancer patients [Zyskowski, et al. (2001) Australas Radiol. 45:39; Kelly, et al. (1993) J. Clin. Oncol. 11:607).
The change in PSA was expressed as a ratio rather than a strict difference due to assumed relative changes. Furthermore, assumed multiplicative error provided that the variation of PSA levels increased with an increase in PSA levels. The combination of these two assumptions provided that the PSA responses be compared on the log scale. Furthermore, it is known that the log scale stabilizes the variance (Rosner, In: Fundamentals of Bio-statistics, 5th edition, Pacific Grove: Duxbury) and it has been observed that the variation in PSA among patients with prostate cancer is higher than in healthy (disease-free) controls.
This regime was maintained until the maximally tolerated dose (MTD) was reached. […]

The conditions of data set [6]: cited from earlier work.

As to `Nc1ncnc2c1ncn2[C@@H]1O[C@H](COP(=O)(O)OP(=O)(O)OP(=O)(O)O)[C@@H](O)[C@H]1O` [ATP, Adenosine triphosphate], the “effect on HRPA cells in vitro” value in data set [1] is listed as “inhibits”. Further, in data set [2] (8-hour infusion once weekly at 50 up to 100 μg/kg/minute), the tolerability entry is given as “well tolerated by most patients”. Further, in data set [2] (Patient 1, 33% at start of trial, transfusion given at nadir), the “hematocrit NADIR” value is 25%. Besides, the “side effects of ATP infusion” value in data set [2] (Patient 1, eight weekly i.v. infusions) is on record as “minor side effects”. In data set [3] (eighth week, 100 μg/kg/min × 8 hours), the “energy levels, exercise and activity” value is “improved energy levels at home and improved exercise and activity”. The bone pain result in data set [3] (end of the eight weeks of ATP therapy) is reported as “continued to have bone pain”. For the same compound, the MTD in data set [4] (Study 2, present disclosure) was 75 µg/kg/min; in data set [4] (Study 3, present disclosure) it was 100 µg/kg/min; in data set [6] (Study 1, Gaba (1990), incremental i.v. dose levels, each infusion 20 min.) it was 125* μg/kg/min; in data set [6] (Study 4, Haskell et al. (1998), duration 96 hours), 50 µg/kg/min; in data set [6] (Study 5, Agteresch et al. (2000), infused over 30 hours, start 20 μg/kg/min, increments of 10 every 30 minutes) it was 65 to 75 µg/kg/min; in data set [6] (Study 6, Haskell et al. (1996), duration 96 hours), 75 µg/kg/min. Besides, the “rate of PSA level increase during ATP treatments” value in data set [5] (Patient 1, eight weekly i.v. ATP infusions, no Sm-153, PSA at start 2732 ng/ml) is recorded as “stabilized”. For the same compound, the “PSA levels during ATP treatment” value in data set [5] (three advanced prostate cancer patients, i.v. infused ATP) is recorded as “stabilized”.
